“And” between values parts separate entries of the source, which are not always exact repeats. Equal entries are not always repeated.
How the values were obtained:
Assay in all cases: Caliper, Mobility shift assay off-chip
PRKCQ (human) = PRKCQ (human) (UniProt Q04759)
MAPK13 (human) = MAPK13 (human) (UniProt O15264)
MAPK11 (human) = MAPK11 (human) (UniProt Q15759)
MERTK (human) = MERTK (human) (UniProt Q12866)
PDK2 (human) = PDK2 (human) (UniProt Q15119)
PTK2 (human) = PTK2 (human) (UniProt Q05397)
CSNK1D (human) = CSNK1D (human) (UniProt P48730)
EPHA2 (human) = EPHA2 (human) (UniProt P29317)
SYK (human) = SYK (human) (UniProt P43405)
TEK (human) = TEK (human) (UniProt Q02763)
MINK1 (human) = MINK1 (human) (UniProt Q8N4C8)
AKT1 (human) = AKT1 (human) (UniProt P31749)
CDK1 (human) = CDK1 (human) (UniProt P06493)
CDK4 (human) = CDK4 (human) (UniProt P11802)
CDC42BPB (human) = CDC42BPB (human) (UniProt Q9Y5S2)
WNK1 (human) = WNK1 (human) (UniProt Q9H4A3)
PRKG2 (human) = PRKG2 (human) (UniProt Q13237)
PIM1 (human) = PIM1 (human) (UniProt P11309)
EPHA1 (human) = EPHA1 (human) (UniProt P21709)
FRK (human) = FRK (human) (UniProt P42685)
STK10 (human) = STK10 (human) (UniProt O94804)
PASK (human) = PASK (human) (UniProt Q96RG2)
TSSK1B (human) = TSSK1B (human) (UniProt Q9BXA7)
CAMK2G (human) = CAMK2G (human) (UniProt Q13555)
PRKACB (human) = PRKACB (human) (UniProt P22694)
DDR1 (human) = DDR1 (human) (UniProt Q08345)
PAK7 (human) = PAK7 (human) (UniProt Q9P286)
PRKCE (human) = PRKCE (human) (UniProt Q02156)
IGF1R (human) = IGF1R (human) (UniProt P08069)
STK24 (human) = STK24 (human) (UniProt Q9Y6E0)
FLT4 (human) = FLT4 (human) (UniProt P35916)
RPS6KA3 KD1 KD2 (human) = RPS6KA3 KD1 KD2 (human) (UniProt P51812)
DAPK1 (human) = DAPK1 (human) (UniProt P53355)
AURKC (human) = AURKC (human) (UniProt Q9UQB9)
Chain of AURKC (human) (Q9UQB9 whole entry, looked up): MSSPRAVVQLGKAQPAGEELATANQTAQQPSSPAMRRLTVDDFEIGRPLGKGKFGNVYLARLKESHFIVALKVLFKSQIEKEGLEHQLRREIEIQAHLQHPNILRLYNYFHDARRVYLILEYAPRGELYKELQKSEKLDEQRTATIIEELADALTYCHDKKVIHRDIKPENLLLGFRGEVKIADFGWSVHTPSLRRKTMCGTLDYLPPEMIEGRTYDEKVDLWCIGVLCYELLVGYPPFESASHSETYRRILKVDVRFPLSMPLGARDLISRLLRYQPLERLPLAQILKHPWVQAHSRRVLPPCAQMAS

Chain of CSNK1D (human) (P48730 whole entry, looked up): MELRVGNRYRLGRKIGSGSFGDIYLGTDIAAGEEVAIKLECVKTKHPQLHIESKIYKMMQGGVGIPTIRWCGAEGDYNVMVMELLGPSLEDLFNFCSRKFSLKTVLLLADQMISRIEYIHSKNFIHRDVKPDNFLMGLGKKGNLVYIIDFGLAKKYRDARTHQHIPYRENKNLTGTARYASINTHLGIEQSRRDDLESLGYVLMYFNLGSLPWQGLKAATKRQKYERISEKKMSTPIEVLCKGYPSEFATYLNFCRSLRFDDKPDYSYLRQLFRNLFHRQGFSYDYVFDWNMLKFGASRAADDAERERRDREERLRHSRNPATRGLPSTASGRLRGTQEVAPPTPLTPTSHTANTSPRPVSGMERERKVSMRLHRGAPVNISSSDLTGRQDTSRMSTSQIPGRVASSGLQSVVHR
Chain of EPHA1 (human) (P21709 whole entry, looked up): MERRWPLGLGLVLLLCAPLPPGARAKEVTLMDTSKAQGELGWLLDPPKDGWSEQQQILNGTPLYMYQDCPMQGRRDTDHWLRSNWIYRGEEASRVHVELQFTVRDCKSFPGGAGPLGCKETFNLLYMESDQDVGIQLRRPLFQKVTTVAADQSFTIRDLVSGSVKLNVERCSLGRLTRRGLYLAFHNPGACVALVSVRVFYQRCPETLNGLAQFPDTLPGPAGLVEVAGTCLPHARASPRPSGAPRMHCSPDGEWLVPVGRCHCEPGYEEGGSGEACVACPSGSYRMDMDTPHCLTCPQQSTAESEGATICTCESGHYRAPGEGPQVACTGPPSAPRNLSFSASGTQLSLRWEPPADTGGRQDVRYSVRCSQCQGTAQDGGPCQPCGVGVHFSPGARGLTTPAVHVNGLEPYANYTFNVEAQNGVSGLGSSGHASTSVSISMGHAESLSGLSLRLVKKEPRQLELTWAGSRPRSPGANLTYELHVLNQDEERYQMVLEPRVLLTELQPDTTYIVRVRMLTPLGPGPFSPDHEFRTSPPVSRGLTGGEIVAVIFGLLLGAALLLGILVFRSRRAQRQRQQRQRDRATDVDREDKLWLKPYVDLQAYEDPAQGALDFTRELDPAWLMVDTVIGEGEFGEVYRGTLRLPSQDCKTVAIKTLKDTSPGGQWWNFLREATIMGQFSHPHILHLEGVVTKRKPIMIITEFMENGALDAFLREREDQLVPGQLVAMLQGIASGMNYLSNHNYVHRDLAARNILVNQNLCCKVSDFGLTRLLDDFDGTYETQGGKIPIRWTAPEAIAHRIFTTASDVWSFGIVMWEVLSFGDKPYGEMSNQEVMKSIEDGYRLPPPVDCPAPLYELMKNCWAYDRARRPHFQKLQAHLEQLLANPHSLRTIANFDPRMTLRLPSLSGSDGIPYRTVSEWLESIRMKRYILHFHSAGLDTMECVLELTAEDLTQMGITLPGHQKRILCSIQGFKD
Chain of CDC42BPB (human) (Q9Y5S2 whole entry, looked up): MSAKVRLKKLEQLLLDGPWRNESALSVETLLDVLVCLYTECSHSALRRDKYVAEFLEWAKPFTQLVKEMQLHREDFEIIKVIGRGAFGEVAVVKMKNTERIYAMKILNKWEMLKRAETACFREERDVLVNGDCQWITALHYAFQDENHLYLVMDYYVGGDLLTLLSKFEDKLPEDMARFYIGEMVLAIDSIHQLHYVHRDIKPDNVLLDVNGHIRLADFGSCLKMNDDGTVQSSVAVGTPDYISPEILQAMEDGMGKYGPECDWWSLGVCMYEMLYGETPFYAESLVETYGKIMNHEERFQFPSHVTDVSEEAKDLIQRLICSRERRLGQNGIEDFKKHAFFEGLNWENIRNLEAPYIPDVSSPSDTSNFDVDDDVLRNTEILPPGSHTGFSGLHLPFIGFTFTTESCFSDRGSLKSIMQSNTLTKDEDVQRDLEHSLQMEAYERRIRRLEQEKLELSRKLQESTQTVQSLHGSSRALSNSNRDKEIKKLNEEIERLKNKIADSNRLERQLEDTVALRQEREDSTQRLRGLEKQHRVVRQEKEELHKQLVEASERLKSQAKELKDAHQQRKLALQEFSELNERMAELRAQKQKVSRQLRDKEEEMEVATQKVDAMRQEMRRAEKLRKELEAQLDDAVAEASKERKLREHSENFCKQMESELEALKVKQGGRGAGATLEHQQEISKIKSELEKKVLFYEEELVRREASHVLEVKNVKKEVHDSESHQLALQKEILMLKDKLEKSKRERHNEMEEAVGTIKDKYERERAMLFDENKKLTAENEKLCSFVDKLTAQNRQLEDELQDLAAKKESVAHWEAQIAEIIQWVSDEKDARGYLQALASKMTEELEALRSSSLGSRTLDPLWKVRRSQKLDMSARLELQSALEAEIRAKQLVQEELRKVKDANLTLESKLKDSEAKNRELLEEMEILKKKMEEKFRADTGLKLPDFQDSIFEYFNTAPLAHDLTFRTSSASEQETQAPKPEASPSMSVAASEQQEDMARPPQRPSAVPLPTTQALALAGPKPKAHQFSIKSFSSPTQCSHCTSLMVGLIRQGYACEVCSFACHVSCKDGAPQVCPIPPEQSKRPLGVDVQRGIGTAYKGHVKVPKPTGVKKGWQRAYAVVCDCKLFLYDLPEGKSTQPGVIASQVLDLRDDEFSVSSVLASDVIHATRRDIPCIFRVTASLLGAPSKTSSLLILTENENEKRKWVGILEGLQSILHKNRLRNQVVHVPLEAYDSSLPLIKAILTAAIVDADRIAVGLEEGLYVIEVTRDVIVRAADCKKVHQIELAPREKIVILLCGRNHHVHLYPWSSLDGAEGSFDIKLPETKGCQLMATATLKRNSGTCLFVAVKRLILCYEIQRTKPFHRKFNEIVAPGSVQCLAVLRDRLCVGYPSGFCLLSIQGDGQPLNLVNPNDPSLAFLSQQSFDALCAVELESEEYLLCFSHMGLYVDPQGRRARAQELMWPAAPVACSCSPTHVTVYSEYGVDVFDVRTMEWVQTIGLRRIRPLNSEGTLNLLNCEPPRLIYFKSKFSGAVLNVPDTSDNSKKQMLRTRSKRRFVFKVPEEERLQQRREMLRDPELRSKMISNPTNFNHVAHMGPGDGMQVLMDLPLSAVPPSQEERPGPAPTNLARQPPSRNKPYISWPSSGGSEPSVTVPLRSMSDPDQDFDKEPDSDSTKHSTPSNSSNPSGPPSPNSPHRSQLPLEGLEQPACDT
Chain of RPS6KA3 KD1 KD2 (human) (P51812 whole entry, looked up): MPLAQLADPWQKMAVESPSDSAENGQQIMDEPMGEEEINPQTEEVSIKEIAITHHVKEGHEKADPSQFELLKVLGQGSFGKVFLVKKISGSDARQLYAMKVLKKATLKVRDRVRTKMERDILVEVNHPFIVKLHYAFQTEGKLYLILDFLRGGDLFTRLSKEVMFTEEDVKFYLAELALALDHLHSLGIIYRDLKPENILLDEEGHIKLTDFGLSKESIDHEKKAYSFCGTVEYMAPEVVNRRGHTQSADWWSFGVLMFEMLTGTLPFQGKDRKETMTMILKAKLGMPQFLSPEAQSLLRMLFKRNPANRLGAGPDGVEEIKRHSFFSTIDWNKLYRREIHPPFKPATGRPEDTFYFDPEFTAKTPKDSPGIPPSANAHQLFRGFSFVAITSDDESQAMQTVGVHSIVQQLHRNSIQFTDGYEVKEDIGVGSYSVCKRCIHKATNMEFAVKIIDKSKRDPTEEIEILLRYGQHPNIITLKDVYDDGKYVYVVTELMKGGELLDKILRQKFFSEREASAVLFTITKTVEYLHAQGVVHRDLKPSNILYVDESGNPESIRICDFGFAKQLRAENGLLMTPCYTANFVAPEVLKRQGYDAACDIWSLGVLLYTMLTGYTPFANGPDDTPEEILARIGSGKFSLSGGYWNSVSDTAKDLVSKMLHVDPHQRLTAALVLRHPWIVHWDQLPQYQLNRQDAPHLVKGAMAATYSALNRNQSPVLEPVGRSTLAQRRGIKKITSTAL
Chain of CAMK2G (human) (Q13555 whole entry, looked up): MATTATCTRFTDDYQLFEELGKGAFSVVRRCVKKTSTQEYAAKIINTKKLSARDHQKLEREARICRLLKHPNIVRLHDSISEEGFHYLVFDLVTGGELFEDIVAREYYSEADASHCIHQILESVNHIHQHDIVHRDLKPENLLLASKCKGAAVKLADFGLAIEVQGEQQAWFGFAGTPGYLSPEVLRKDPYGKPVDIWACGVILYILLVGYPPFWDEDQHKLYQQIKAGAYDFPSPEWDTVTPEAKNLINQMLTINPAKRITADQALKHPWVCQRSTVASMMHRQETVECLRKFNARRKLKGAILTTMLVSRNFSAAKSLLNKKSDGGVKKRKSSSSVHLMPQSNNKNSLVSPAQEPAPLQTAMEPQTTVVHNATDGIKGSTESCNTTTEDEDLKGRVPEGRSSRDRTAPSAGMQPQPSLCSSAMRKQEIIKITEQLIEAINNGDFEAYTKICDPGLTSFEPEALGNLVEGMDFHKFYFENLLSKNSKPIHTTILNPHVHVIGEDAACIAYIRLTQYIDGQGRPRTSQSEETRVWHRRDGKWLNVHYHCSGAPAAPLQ
Chain of PIM1 (human) (P11309 whole entry, looked up): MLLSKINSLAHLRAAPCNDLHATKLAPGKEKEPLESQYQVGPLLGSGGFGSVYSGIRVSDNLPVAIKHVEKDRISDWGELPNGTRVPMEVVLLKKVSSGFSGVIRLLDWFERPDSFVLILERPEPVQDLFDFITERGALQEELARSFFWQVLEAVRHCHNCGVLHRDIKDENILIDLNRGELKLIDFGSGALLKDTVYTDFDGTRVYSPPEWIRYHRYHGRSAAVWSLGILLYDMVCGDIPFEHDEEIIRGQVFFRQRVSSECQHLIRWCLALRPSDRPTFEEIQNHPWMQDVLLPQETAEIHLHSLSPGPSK

**Q.** Which inhibition (PRKCQ (human); compound 0.02 µM) does the source give for `COc1cc2c(Oc3ccc4[nH]c(C)cc4c3F)ncnc2cc1OCCCN1CCCC1` here?
**A.** 8.9%

**Q.** And the inhibition (PRKCQ (human); compound 0.2 µM)?
**A.** 3.7%

**Q.** What about the inhibition (MAPK13 (human); compound 0.02 µM) of the same compound?
**A.** -2.9%

**Q.** And the inhibition (MAPK13 (human); compound 0.2 µM)?
**A.** -3.4%

**Q.** What about the inhibition (MAPK11 (human); compound 0.02 µM) of the same compound?
**A.** -2.6%

**Q.** And the inhibition (MAPK11 (human); compound 0.2 µM)?
**A.** -3.5%

**Q.** What about the inhibition (MERTK (human); compound 0.02 µM) of the same compound?
**A.** 3.6%

**Q.** And the inhibition (MERTK (human); compound 0.2 µM)?
**A.** 5.9%

**Q.** What about the inhibition (PDK2 (human); compound 0.02 µM) of the same compound?
**A.** -2.7%

**Q.** What about the inhibition (PDK2 (human); compound 0.2 µM) of the same compound?
**A.** -4.9%

**Q.** What about the inhibition (PTK2 (human); compound 0.02 µM) of the same compound?
**A.** -5.3%

**Q.** And the inhibition (PTK2 (human); compound 0.2 µM)?
**A.** -4.2%

**Q.** And the inhibition (CSNK1D (human); compound 0.02 µM)?
**A.** -3.7% and -4.3%

**Q.** And the inhibition (CSNK1D (human); compound 0.2 µM)?
**A.** -3.5% and -3.9%

**Q.** What about the inhibition (EPHA2 (human); compound 0.02 µM) of the same compound?
**A.** -5.4%

**Q.** What about the inhibition (EPHA2 (human); compound 0.2 µM) of the same compound?
**A.** -3.5%

**Q.** What about the inhibition (SYK (human); compound 0.02 µM) of the same compound?
**A.** -4.7%

**Q.** What about the inhibition (SYK (human); compound 0.2 µM) of the same compound?
**A.** -3.5%

**Q.** And the inhibition (TEK (human); compound 0.02 µM)?
**A.** 5.8%

**Q.** And the inhibition (TEK (human); compound 0.2 µM)?
**A.** 48.5%

**Q.** And the inhibition (MINK1 (human); compound 0.02 µM)?
**A.** 3.5%

**Q.** And the inhibition (MINK1 (human); compound 0.2 µM)?
**A.** 2.9%

**Q.** What about the inhibition (AKT1 (human); compound 0.02 µM) of the same compound?
**A.** -0.8%

**Q.** And the inhibition (AKT1 (human); compound 0.2 µM)?
**A.** -3.1%

**Q.** And the inhibition (CDK1 (human); compound 0.02 µM)?
**A.** -0.7%

**Q.** And the inhibition (CDK1 (human); compound 0.2 µM)?
**A.** -3.2%

**Q.** What about the inhibition (CDK4 (human); compound 0.02 µM) of the same compound?
**A.** 2.7%

**Q.** What about the inhibition (CDK4 (human); compound 0.2 µM) of the same compound?
**A.** 7.2%

**Q.** What about the inhibition (CDC42BPB (human); compound 0.02 µM) of the same compound?
**A.** -8.9%

**Q.** What about the inhibition (CDC42BPB (human); compound 0.2 µM) of the same compound?
**A.** 4.2%

**Q.** And the inhibition (WNK1 (human); compound 0.02 µM)?
**A.** 4.8%

**Q.** And the inhibition (WNK1 (human); compound 0.2 µM)?
**A.** 2.6%

**Q.** What about the inhibition (PRKG2 (human); compound 0.02 µM) of the same compound?
**A.** -2.4%

**Q.** And the inhibition (PRKG2 (human); compound 0.2 µM)?
**A.** -3.4%

**Q.** What about the inhibition (PIM1 (human); compound 0.02 µM) of the same compound?
**A.** -2.8%

**Q.** And the inhibition (PIM1 (human); compound 0.2 µM)?
**A.** -8.3%

**Q.** What about the inhibition (EPHA1 (human); compound 0.02 µM) of the same compound?
**A.** -0.2%

**Q.** And the inhibition (EPHA1 (human); compound 0.2 µM)?
**A.** 6.5%

**Q.** What about the inhibition (FRK (human); compound 0.02 µM) of the same compound?
**A.** 12%

**Q.** And the inhibition (FRK (human); compound 0.2 µM)?
**A.** 27.4%

**Q.** And the inhibition (STK10 (human); compound 0.02 µM)?
**A.** 45.1%

**Q.** And the inhibition (STK10 (human); compound 0.2 µM)?
**A.** 91.7%

**Q.** And the inhibition (PASK (human); compound 0.02 µM)?
**A.** -4.3%

**Q.** What about the inhibition (PASK (human); compound 0.2 µM) of the same compound?
**A.** 0.3%

**Q.** What about the inhibition (TSSK1B (human); compound 0.02 µM) of the same compound?
**A.** -3.6%

**Q.** What about the inhibition (TSSK1B (human); compound 0.2 µM) of the same compound?
**A.** -3.6%

**Q.** What about the inhibition (CAMK2G (human); compound 0.02 µM) of the same compound?
**A.** 0.2%

**Q.** And the inhibition (CAMK2G (human); compound 0.2 µM)?
**A.** 1.5%

**Q.** And the inhibition (PRKACB (human); compound 0.02 µM)?
**A.** 6.8%

**Q.** And the inhibition (PRKACB (human); compound 0.2 µM)?
**A.** -7.7%

**Q.** What about the inhibition (DDR1 (human); compound 0.02 µM) of the same compound?
**A.** 25.7%

**Q.** What about the inhibition (DDR1 (human); compound 0.2 µM) of the same compound?
**A.** 95.3%

**Q.** What about the inhibition (PAK7 (human); compound 0.02 µM) of the same compound?
**A.** -5.8%

**Q.** And the inhibition (PAK7 (human); compound 0.2 µM)?
**A.** 7.3%

**Q.** And the inhibition (PRKCE (human); compound 0.02 µM)?
**A.** 7.2%

**Q.** And the inhibition (PRKCE (human); compound 0.2 µM)?
**A.** -3%

**Q.** And the inhibition (IGF1R (human); compound 0.02 µM)?
**A.** 1.4%

**Q.** What about the inhibition (IGF1R (human); compound 0.2 µM) of the same compound?
**A.** -1.5%

**Q.** And the inhibition (STK24 (human); compound 0.02 µM)?
**A.** 2%

**Q.** What about the inhibition (STK24 (human); compound 0.2 µM) of the same compound?
**A.** 12.8%

**Q.** What about the inhibition (FLT4 (human); compound 0.02 µM) of the same compound?
**A.** 73.8%

**Q.** What about the inhibition (FLT4 (human); compound 0.2 µM) of the same compound?
**A.** 97%

**Q.** What about the inhibition (RPS6KA3 KD1 KD2 (human); compound 0.02 µM) of the same compound?
**A.** 0.1%

**Q.** What about the inhibition (RPS6KA3 KD1 KD2 (human); compound 0.2 µM) of the same compound?
**A.** -1.8%

**Q.** What about the inhibition (DAPK1 (human); compound 0.02 µM) of the same compound?
**A.** -5.9%

**Q.** And the inhibition (DAPK1 (human); compound 0.2 µM)?
**A.** 7.4%

**Q.** And the inhibition (AURKC (human); compound 0.02 µM)?
**A.** -4.3%

**Q.** What about the inhibition (AURKC (human); compound 0.2 µM) of the same compound?
**A.** -4%
